In US20200237800A1, “METHODS AND COMPOSITIONS FOR THE TREATMENT OF INFLAMMATORY DISEASE” (THE BRIGHAM AND WOMEN'S HOSPITAL, INC., priority 2017, published 2020):
Strand notation (5' to 3'): a small letter for the sugar, then the base; units joined by * are phosphorothioate-linked, units joined directly phosphodiester-linked; [ ] holds rarer units or linkages, { } end groups; capitals alone tell only the bases. d = 2'-deoxy (DNA); m = 2'-O-methyl; r = 2'-OH (RNA)

What was measured:
[1] = tested on: human PBMC-derived macrophages; assay: Cytokine/chemokine mRNA (RT-PCR) and protein (ELISA) in LPS-activated human PBMC-derived macrophages after lnc-FAM164A1 silencing; assay type: cell-based; conditions: for TNF-α mRNA: FIG. 11E
Description: (§1) Silencing of lnc-FAM164A1 by antisense and si-RNA oligonucleotides on human PBMC-derived macrophages. Lnc-FAM164A1 RNA silencing was performed on human PBMC-derived macrophagesas using SilenceMag (BOCA Scientific, Boca Raton, Fla.) at final concentration of 50-100 nM.32 36-48 hours after transfection, macrophages were stimulated by 10 ng/mL LPS for 2-6 hours before collection of macrophages and cell culture medium. Anti-sense LNATM long RNA GepmeR oligonucleotides target lnc-FAM164A1 (Sequence 5′-GGTAAGAAATAGGTTG-3′(SEQ ID NO: 52)) and nonspecific negative control oligonucleotides (Sequence 5′-AACACGTCTATACGC-3′(SEQ ID NO: 53)) were designed by Exiqon A/S (Vedbaek, Denmark). Si-RNA Oligonucleotides targeting lnc-FAM164A1 and luciferase control siRNA oligos were designed by Axolabs (Kulmback, Germany). Their sequences and chemical modifications are as follows (A, G, U, C: RNA nucleotide; a, g, u, c: 2′-O-methyl-nucleotide, s: Phosphorothioate, dT: desoxy-T residue): Luciferase control siRNA (XD-00194): Sense strand: 5′-cuuAcGcuGAGuAcuucGAdTsdT-3′ (SEQ ID NO: 54); Antisense strand: 5′-UCGAAGuACUcAGCGuAAGdTsdT-3′ (SEQ ID NO: 4). Lnc-FAM164A1 specific siRNA oligo#5 (XD-05325): 5′-ucAccAuuAucuucAuAcudTsdT-3′(SEQ ID NO: 5) Antisense strand: 5′-AGuAUGAAGAuAAUGGUGAdTsdT-3′ (SEQ ID NO: 6). Lnc-FAM164A1 specific siRNA oligo#8 (XD-05328): 5′-uguGcuAAAAuAcuGAGAudTsdT-3′ (SEQ ID NO: 7); Antisense strand: 5′-AUCUcAGuAUUUuAGcAcAdTsdT-3′ (SEQ ID NO: 8).
(§2) RNA extraction and RT-PCR. Total RNA were extracted using an Illustra RNAspin Mini kit (GE Healthcare, Piscataway, N.J.) and the genomic DNA was removed by on-column DNase I digestion at RT for 15 minutes. cDNAs were synthesized using a high capacity cDNA reverse transcription kit (Applied Biosystems, Carlsbad, Calif.). Real-time PCR was performed on a 7900HT fast real-time PCR system (Applied Biosystems). Taqman probe and primers for lnc-FAM164A1 were designed by Integrated DNA Technologies and listed as follows: Probe: 5′-/56-FAM/ATGG CCTCA/ZEN/GTTAGGACTGCTTGG/3IABkFQ/-3′ (SEQ ID NO: 9); Primer1: 5′-GATGGGTGC TGGGAGTATAAG-3′ (SEQ ID NO: 10); Primer2: 5′-[…]-3′ (SEQ ID NO: 11). Other Taqman probes for IL-1β, IL-6, IL-10, CCL2, TNF-α, and GAPDH was purchased from Life Technologies. Relative expression of each gene was normalized by GAPDH.
ELISA. Duoset ELISA kits (R&D systems, Minneapolis, Minn.) were used to detect the levels of cytokines (human and mouse CCL2, IL-6, TNF-α) in culture medium from macrophages or mouse plasma.

lnc-FAM164A1 = assay: Silencing of lnc-FAM164A1 by antisense and si-RNA oligonucleotides on human PBMC-derived macrophages (RT-PCR); assay type: cell-based; conditions: for potency of silencing of lnc-FAM164A1: compared among 10 different siRNA oligonucleotides in human macrophages
Description: as §1
RNA extraction and RT-PCR. Total RNA were extracted using an Illustra RNAspin Mini kit (GE Healthcare, Piscataway, N.J.) and the genomic DNA was removed by on-column DNase I digestion at RT for 15 minutes. cDNAs were synthesized using a high capacity cDNA reverse transcription kit (Applied Biosystems, Carlsbad, Calif.). Real-time PCR was performed on a 7900HT fast real-time PCR system (Applied Biosystems). […]

[2] = tested on: human PBMC-derived macrophages; assay: Induction of lnc-FAM164A1 expression in human PBMC-derived macrophages (RT-PCR); assay type: cell-based; conditions: 10 ng/mL cytokine, 3 hours
Description: FIGS. 1A-1E show LPS treatment increases the expression of lnc-FAM164A1 in human macrophages, PBMCs and white blood cells in humanized Hu-CD34 NSG mice. […] Human PBMC-derived macrophages were stimulated with 10 ng/mL LPS for 3h or 6h (FIG. 1B, P<0.05 LPS vs control; n=5-6 different donors). Human PBMC was isolated from citrated whole blood derived stimulated with 10 ng/mL LPS for 6 hours ex vivo (FIG. 1C, P<0.05 LPS vs control; n=3-4 different donors). Hu-CD34 NSG mice were stimulated with 5 mg/kg of LPS for 6 hours (FIG. 1D, P<0.05, NSG control vs NSG +LPS, n=4 mice per group). Relative fold change of the lnc-FAM164A1 expression was determined by RT-PCR (FIGS. 1B-1D). […]
FIG. 9A-9C show human PBMC-derived macrophages were stimulated with 10 ng/mL human IL-6 and TNF-α for 3 hours. Relative fold change of the lnc-FAM164A1 expression was determined by RT-PCR (P<0.05 LPS vs control; n=3-4 different donors) (FIG. 9A). […] Expression of lnc-FAM164A1 RNA in liver, spleen and lung isolated from the endotoxemic mice was determined by RT-PCR (P<0.05, Spleen vs Lung; n=4 mice per group) (FIG. 9B). […] Lnc-FAM164A1 RNA, IL-1β and GAPDH mRNA expression were determined by RT-PCR and shown as the ratio of nuclear/cytoplasmic in unstimulated macrophages (Left Panel) and LPS-treated macrophages (Right Panel) (n=2 different donors). […]

NF-κB signaling = assay: NF-κB inhibitor pretreatment of LPS-stimulated PBMC-derived macrophages (RT-PCR); assay type: cell-based, human; conditions: 3-30 μM, dose-dependent; 30 minutes pretreatment, 10 ng/mL LPS 6 hours
Description: FIGS. 10A and 18B. (FIG. 10A) Time course of lnc-FAM164A1 and cytokines expression in LPS-stimulated PBMC-derived macrophages. Human PBMC-derived macrophages were stimulated with 10 ng/mL LPS for 6, 12 and 24 hours. Lnc-FAM164A1 RNA, IL-1β, IL-6 and TNF-α mRNA expression were determined by RT-PCR and normalized by GAPDH expression. (Representative results of 2 different donors). […] Human PBMC-derived macrophages were pretreated with 3-30 μM […] for 30 minutes before the stimulation with 10 ng/mL LPS for 6 hours. Lnc-FAM164A1 RNA, IL-1β, IL-6 and TNF-α mRNA expression were determined by RT-PCR and normalized by GAPDH expression (Representative data from 2 different donors).
as §2, with “Other Taqman probes for IL-1β, IL-6, IL-10, CCL2, TNF-α, and GAPDH was purchased from Life Technologies. Relative expression of each gene was normalized by GAPDH.” left out

[3] = LPS-stimulated human macrophages

## 5′-uguGcuAAAAuAcuGAGAudTsdT-3′ (sense mUmGmUrGmCmUrArArArAmUrAmCmUrGrArGrAmUdT*dT; antisense rArUrCrUmCrArGmUrArUrUrUmUrArGmCrAmCrAdT*dT; siRNA) [#8]
[1]; [3]
  LPS-induced CCL2 mRNA expression and protein release: decreased expression
  LPS-induced IL-6 mRNA expression and protein release: decreased expression
  TNF-α mRNA: No significant change
lnc-FAM164A1
  potency of silencing of lnc-FAM164A1: higher potency of silencing than the others

## TNF-α
[2]
  lnc-FAM164A1 expression: increased the expression

## Cc1ccc(S(=O)(=O)/C=C/C#N)cc1 [Bay 11-7802]
NF-κB signaling
  transcription of cytokines (IL-1β, IL-6 and TNF-α mRNA): blocks the transcription
  transcription of lnc-FAM164A1: blocks the transcription

## IL-6: human IL-6, pro-inflammatory cytokine used as stimulus at 10 ng/mL
[2]
  lnc-FAM164A1 expression: increased the expression

## 5′-ucAccAuuAucuucAuAcudTsdT-3′ (sense mUmCrAmCmCrAmUmUrAmUmCmUmUmCrAmUrAmCmUdT*dT; antisense rArGmUrArUrGrArArGrAmUrArArUrGrGrUrGrAdT*dT; siRNA) [#5]
[1]; [3]
  LPS-induced CCL2 mRNA expression and protein release: decreased expression
  LPS-induced IL-6 mRNA expression and protein release: decreased expression
  TNF-α mRNA: No significant change
lnc-FAM164A1
  potency of silencing of lnc-FAM164A1: higher potency of silencing than the others

## 5′-GGTAAGAAATAGGTTG-3′ (LNA gapmer, pattern and linkages not given here) [anti-sense oligonucleotides]
[1]; [3]
  LPS-induced CCL2 mRNA expression and protein release: significant suppressed
  LPS-induced IL-6 mRNA expression and protein release: significant suppressed
  LPS-induced TNF-α mRNA expression and protein release: significant suppressed
[1]; control and LPS-treated macrophages
  expression of anti-inflammatory cytokine IL-10: no changes
lnc-FAM164A1; human macrophages, FIG. 11A
  silencing efficacy of lnc-FAM164A1: at least 50%
